This assay deals with mGluR5 (MPEP binding site) (Homo sapiens (Human), UniProt P41594). In words: Radioligand binding assay (MPEP site radioligand, membrane filtration). The note with it: 5 nM radioligand binding to MPEP site; Cheng-Prusoff. Here is the method: Binding assays were performed as described in [J. A. O'Brien et al. Mol Pharmacol., 2003, 64, 731-740] with slight modifications, including that a radioligand that binds to the […] (MPEP) binding site was used in place of [^3H] MPEP. Briefly, after thawing, the membrane homogenates were resuspended in 50 mM Tris-HCl and 0.9% NaCl binding buffer at pH 7.4 to a final assay concentration of 20 μg protein/well for radioligand filtration binding. Incubations included 5 nM radioligand, membranes and either buffer or varying concentrations of compound. Samples were incubated for 60 min at room temperature with shaking. Non-specific binding was defined with 10 μM cold MPEP when using the radioligand. After incubation, samples were filtered over a GF/C filter (presoaked in 0.25% polyethyleneimine (PEI)) and then washed 4 times using a Tomtec® Harvester 96® Mach III cell harvester (Tomtec, Hamden, Conn.) with 0.5 mL ice-cold 50 mM Tris-HCl (pH 7.4).
Chain of mGluR5 (MPEP binding site) (P41594 21-1212): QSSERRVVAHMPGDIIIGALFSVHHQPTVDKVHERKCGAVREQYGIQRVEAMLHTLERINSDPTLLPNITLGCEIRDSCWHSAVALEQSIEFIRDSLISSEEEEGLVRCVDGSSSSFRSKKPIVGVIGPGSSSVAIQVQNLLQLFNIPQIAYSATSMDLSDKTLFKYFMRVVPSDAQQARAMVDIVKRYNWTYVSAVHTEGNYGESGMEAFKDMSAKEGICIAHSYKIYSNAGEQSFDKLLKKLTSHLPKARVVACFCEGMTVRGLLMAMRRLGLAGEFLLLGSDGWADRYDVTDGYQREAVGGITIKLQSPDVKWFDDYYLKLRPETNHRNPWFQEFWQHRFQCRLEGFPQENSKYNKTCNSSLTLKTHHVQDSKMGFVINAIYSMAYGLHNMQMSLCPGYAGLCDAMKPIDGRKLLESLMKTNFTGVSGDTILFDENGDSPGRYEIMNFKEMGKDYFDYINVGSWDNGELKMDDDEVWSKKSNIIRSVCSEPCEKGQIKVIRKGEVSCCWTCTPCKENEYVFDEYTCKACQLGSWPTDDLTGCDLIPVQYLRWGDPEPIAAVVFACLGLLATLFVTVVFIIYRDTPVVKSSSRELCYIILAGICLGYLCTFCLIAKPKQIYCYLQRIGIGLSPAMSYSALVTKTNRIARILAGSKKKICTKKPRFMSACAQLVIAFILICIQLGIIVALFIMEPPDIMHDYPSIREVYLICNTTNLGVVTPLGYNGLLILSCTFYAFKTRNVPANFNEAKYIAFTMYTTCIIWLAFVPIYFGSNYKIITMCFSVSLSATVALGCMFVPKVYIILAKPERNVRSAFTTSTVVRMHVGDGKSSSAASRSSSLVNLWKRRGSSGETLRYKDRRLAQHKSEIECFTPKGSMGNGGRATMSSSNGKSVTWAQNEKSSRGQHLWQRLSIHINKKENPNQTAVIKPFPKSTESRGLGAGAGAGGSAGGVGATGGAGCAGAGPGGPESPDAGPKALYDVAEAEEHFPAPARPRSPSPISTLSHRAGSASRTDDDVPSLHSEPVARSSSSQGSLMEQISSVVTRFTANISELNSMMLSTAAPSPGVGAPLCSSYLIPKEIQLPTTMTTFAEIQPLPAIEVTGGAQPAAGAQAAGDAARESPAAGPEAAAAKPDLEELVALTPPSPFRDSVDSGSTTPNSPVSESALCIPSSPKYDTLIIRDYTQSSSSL
IC50 values were derived from the inhibition curve and Ki values were calculated according to the Cheng and Prusoff equation of Ki=IC50/(1+[L]/Kd) described in [Y. Cheng and W. H. Prusoff Biochem. Pharmacal. 1973, 22, 3099-3108] where [L] is the concentration of radioligand and Kd is its dissociation constant at the receptor, derived from the saturation isotherm.
Regarding `O=C(NC12CCCC(C#Cc3cccc(F)c3)(CC1)C2)c1cnccn1` (stereo not shown) [Example 3, pyrazine-2-carboxylic acid [5-(3-fluoro-phenylethynyl)-bicyclo[3.2.1]oct-1-yl]-amide], the affinity, expressed as Ki, was 3 nM. Regarding `O=C(NC12CCCC(C#Cc3cnccn3)(CC1)C2)c1cccc(Cl)c1` (stereo not shown) [Example 13, 3-Chloro-N-(5-pyrazin-2-ylethynyl-bicyclo[3.2.1]oct-1-yl)-benzamide], affinity was put at a Ki of 91 nM. Turning to `Cc1nccc(C(=O)N[C@]23CCC[C@](C#Cc4ccccn4)(CC2)C3)n1` [Example 18, 2-methyl-N-((1R,5S)-5-(pyridin-2-ylethynyl)bicyclo[3.2.1]octan-1-yl)pyrimidine-4-carboxamide], the affinity corresponds to a Ki of 10 nM. For the compound `O=C(N[C@]12CCC[C@](C#Cc3ccccn3)(CC1)C2)c1ccc(F)cn1` [Example 20, 5-fluoro-N-((1R,5S)-5-(pyridin-2-ylethynyl)bicyclo[3.2.1]octan-1-yl)picolinamide], the Ki (usually a measure of affinity in units of concentration, obtained from inhibition or displacement) worked out at 11 nM.

Take `Cc1nccc(C(=O)N[C@@]23CCC[C@@](C#Cc4ccccn4)(CC2)C3)n1` [Example 28, 2-methyl-N-((1S,5R)-5-(pyridin-2-ylethynyl)bicyclo[3.2.1]octan-1-yl)pyrimidine-4-carboxamide]: the affinity, expressed as Ki, was 17 nM. Turning to `O=C(N[C@@]12CCC[C@@](C#Cc3ccccn3)(CC1)C2)c1ccc(F)cn1` [Example 30, 5-fluoro-N-((1S,5R)-5-(pyridin-2-ylethynyl)bicyclo[3.2.1]octan-1-yl)picolinamide], the Ki is 35 nM.

`Cn1ccc(C(=O)N[C@]23CCC[C@](C#Cc4cnccn4)(CC2)C3)n1` [Example 44, 1-methyl-N-((1R,5S)-5-(pyrazin-2-ylethynyl)bicyclo[3.2.1]octan-1-yl)-1H-pyrazole-3-carboxamide] gave a Ki of 34 nM. Under `Cc1csc(C(=O)N[C@]23CCC[C@](C#Cc4cnccn4)(CC2)C3)n1` [Example 45, 4-methyl-N-((1R,5S)-5-(pyrazin-2-ylethynyl)bicyclo[3.2.1]octan-1-yl)thiazole-2-carboxamide] stands 6.2 nM; under `Cn1ccc(C(=O)N[C@@]23CCC[C@@](C#Cc4cnccn4)(CC2)C3)n1` [Example 49, 1-methyl-N-((1S,5R)-5-(pyrazin-2-ylethynyl)bicyclo[3.2.1]octan-1-yl)-1H-pyrazole-3-carboxamide], 590 nM. For `Cc1csc(C(=O)N[C@@]23CCC[C@@](C#Cc4cnccn4)(CC2)C3)n1` [Example 50, 4-methyl-N-((1S,5R)-5-(pyrazin-2-ylethynyl)bicyclo[3.2.1]octan-1-yl)thiazole-2-carboxamide], the Ki turned out to be 38 nM. This Ki is about 16-fold lower than that of the compound before.

`Cc1cncc(C#CC23CC4CC(C2)CC(NC(=O)c2cccc(F)c2)(C4)C3)n1` [Example 56, 3-fluoro-N-[3-(6-methylpyrazin-2-ylethynyl)-1-adamantyl]benzamide] displayed an inhibition constant (Ki) of 1300 nM. This Ki lies about 34-fold higher than the previous one. As to `O=C(NC12CC3CC(CC(C#Cc4ccccn4)(C3)C1)C2)c1cnccn1` [Example 71, N-[3-(pyridin-2-ylethynyl)-1-adamantyl]pyrazine-2-carboxamide], the Ki came to 4.7 nM. This Ki lies about 280-fold lower than the previous one. For the compound `Cc1csc(C#CC23CC4CC(C2)CC(NC(=O)c2ccn(C)n2)(C4)C3)n1` [Example 81, 1-methyl-N-[3-(4-methylthiazol-2-ylethynyl)-1-adamantyl]-1H-pyrazole-3-carboxamide], the inhibitory constant (Ki) worked out at 120 nM. This Ki is about 26-fold higher than that of the compound before.

Source of the values: patent publication US9212165B2, “Bicarbocyclic and tricarbocyclic ethynyl derivatives and uses of same” (H. Lundbeck A/S, priority 2011, dated 2015).
